Measured values published in patent publication US20100119655A1, “MUSCULAR PROTEIN DENATURATION INHIBITOR, ADDITIVE FOR A FISH MEAT-ORIGIN GROUND MEAT, FISH MEAT-ORIGIN GROUND MEAT CONTAINING THE SAME AND METHOD OF PRODUCING THE SAME” (Nagasaki Prefectural Government, priority 2007, published 2010).

Experiments:
myosin = target: T1, myosin (Cyprinus carpio, UniProt Q90339); test: Heat denaturation of myosin at 35° C., followed by loss of Ca-ATPase activity (denaturation rate constant KD); assay type: biochemical, carp (Cyprinus carpio); conditions: compound added by 1M; myosin heated at 35° C.; FIG. 1
T1 construct: myofibrils were prepared from dorsal meat of carp (Cyprinus carpio); from tissue; host or cells: dorsal muscle of carp
From the text: (§1) In this embodiment, determination of the effect of inhibiting denaturation of fish meat-origin muscular proteins employs a method for calculating a rate of denaturation of myosin based on disappearance of Ca-ATPase activity as bioactivity of myosin {Tohru Oizumi et al.: Gyoruikingenseni-no-kanetsuhensei-ni-taisuru-to-oyobi-toarukohru-no-hogokohka-no-teiryokosatsu (Quantitative Examination of Effect of Protecting Sugars and Sugar Alcohols from Heat Denaturation of Fish Myofibril. Journal of the Japanese Society of Fisheries Science, 47, 901-908 (1981)}. Said method in this embodiment will be described as follows by dividing into a method for determining the effect of inhibiting heat denaturation and a method for determining effect of inhibiting freeze denaturation.
(§2) Firstly, a method for determining the effect of inhibiting heat denaturation is described. […] Then, changes in Ca-ATPase activity of the fish meat-origin muscular proteins heated are analyzed according to a first-order reaction equation to calculate a denaturation rate constant (KD). Ca-ATPase activity is measured by preparing a reaction composition liquid composed of 0.5M KCl, 25 mM Tris-maleate (pH 7.0), 5 mM CaCl2, 1 mM ATP and 0.2 to 0.3 mg/ml of fish meat-origin muscular proteins subjected to heating and ice cold and determining free inorganic phosphate quantitatively. Then, denaturation rate constant is calculated from Ca-ATPase activity obtained and heating time. Consequently, if the denaturation rate constant is smaller, the effect of inhibiting denaturation of fish meat-origin muscular proteins is significant, and if the denaturation rate constant is larger, the effect of inhibiting denaturation of fish meat-origin muscular proteins is small.
After myofibrils were prepared from dorsal meat of carp (Cyprinus carpio) according to a method by Noboru Katoh et al. {Noboru Katoh et al.: Gyruikingenseni-ATPase-no-seikagakuteki-kenkyu (Biochemical Research of Fish Myofibrillary ATPase). Journal of the Japanese Society of Fisheries Science, 43, 857-867 (1977)}, the myofibrils were dissolved in 0.5M KCl in the presence of ATP-Mg and 40 to 55% ammonium sulfate fraction was used as myosin by ammonium sulfate fractionation. […] After 5% perchloric acid was added thereto to stop the reaction and filter the product, free inorganic phosphate was subjected to colorimetric determination by phosphomolybdic acid method to calculate a logarithmic value of denaturation rate constant.

myofibrillar proteins [1] = test: Freeze denaturation of myofibrillar proteins, remaining Ca-ATPase activity after cryopreservation at −20° C.; assay type: biochemical, carp (Cyprinus carpio); conditions: approximately 1 month, FIG. 3
Protocol: Next, a method for determining the effect of inhibiting freeze denaturation will be described. […] In this case, a comparison is made not by an absolute value of denaturation rate constant but a relative value thereof. The measurement of Ca-ATPase activity is the same as above.
The myofibrils were taken approximately 1 month later and added to 0.5M KCl, 25 mM Tris-maleate (pH 7.0), 5 mM CaCl2 and 1 mM ATP to prepare a reaction composition liquid to be reacted at 25° C. After 5% perchloric acid was added thereto to stop the reaction and filter the product, free inorganic phosphate was subjected to colorimetric determination by phosphomolybdic acid method to calculate Ca-ATPase activity and analyze the extent of denaturation observed from the decline of Ca-ATPase activity.

myofibrillar proteins [2] = test: Heat denaturation of myofibrillar proteins at 42° C., followed by loss of Ca-ATPase activity (denaturation rate constant KD); assay type: biochemical, carp (Cyprinus carpio); conditions: for decline of rate of denaturation of myofibrillar proteins (logarithmic value of denaturation rate constant KD): compound added by 1M, myofibrils heated at 42° C., FIG. 2
From the text: as §1, §2
After 5% perchloric acid was added thereto to stop the reaction and filter the product, free inorganic phosphate was subjected to colorimetric determination by phosphomolybdic acid method to calculate a logarithmic value of denaturation rate constant.

myofibrillar proteins [3] = conditions: relative to sorbitol; Non-Patent Document 1; cited from earlier work
myofibrillar proteins [4] = test: Dissolution of myofibrillar proteins, soluble proteins in supernatant after centrifugal separation; assay type: biochemical, carp (Cyprinus carpio); conditions: addition of 0.6M; FIG. 4

T1 sequence (Q90339 whole entry): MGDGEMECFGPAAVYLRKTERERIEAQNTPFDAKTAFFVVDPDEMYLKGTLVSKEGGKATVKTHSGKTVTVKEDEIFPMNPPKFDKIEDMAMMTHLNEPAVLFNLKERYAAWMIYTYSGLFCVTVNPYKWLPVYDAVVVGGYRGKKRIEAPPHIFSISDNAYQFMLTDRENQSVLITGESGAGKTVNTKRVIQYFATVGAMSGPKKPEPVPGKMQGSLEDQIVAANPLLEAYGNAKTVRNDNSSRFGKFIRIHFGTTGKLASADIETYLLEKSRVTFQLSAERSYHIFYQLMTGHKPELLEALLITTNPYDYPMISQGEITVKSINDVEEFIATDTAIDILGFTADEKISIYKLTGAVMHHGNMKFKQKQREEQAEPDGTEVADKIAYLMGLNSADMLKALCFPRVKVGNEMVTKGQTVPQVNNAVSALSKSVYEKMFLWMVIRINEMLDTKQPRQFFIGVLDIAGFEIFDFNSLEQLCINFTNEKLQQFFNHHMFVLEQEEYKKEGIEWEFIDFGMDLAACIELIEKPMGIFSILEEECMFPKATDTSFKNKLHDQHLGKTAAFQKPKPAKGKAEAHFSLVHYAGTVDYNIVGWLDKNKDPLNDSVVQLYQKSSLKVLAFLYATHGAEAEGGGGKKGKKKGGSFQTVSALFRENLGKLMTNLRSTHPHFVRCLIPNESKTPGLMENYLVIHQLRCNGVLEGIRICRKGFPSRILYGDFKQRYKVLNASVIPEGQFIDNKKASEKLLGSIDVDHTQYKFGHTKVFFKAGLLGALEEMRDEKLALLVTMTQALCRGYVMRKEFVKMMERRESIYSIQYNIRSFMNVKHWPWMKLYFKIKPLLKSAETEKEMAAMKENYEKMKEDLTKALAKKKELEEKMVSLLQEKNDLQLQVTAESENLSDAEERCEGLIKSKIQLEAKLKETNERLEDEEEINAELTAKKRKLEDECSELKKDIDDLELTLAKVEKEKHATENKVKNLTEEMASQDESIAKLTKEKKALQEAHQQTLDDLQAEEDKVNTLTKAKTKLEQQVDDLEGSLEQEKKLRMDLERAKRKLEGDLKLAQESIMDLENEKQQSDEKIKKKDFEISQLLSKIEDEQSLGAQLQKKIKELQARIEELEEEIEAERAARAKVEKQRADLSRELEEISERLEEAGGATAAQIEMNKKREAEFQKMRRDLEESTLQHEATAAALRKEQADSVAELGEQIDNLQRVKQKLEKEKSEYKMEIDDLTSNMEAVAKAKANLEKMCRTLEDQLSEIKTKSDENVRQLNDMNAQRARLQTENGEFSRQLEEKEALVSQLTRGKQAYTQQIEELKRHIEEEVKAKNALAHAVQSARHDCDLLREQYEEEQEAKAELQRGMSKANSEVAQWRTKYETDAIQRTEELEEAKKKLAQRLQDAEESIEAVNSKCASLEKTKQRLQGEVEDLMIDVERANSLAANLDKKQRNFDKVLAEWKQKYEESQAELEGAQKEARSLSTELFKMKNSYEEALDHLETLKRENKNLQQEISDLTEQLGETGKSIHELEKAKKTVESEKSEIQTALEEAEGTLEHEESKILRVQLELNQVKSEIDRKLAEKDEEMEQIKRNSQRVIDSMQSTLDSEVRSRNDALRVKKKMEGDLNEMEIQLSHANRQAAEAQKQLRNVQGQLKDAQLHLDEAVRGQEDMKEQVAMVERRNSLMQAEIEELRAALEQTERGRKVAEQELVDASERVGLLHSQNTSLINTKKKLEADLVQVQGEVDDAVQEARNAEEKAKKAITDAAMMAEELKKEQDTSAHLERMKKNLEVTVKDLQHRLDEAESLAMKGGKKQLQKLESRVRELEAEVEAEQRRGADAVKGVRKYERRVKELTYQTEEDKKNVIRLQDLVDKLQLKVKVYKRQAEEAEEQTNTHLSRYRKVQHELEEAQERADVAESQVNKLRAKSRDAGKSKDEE

Row | Structure (SMILES) | decline of rate of denaturation of myosin (logarithmic value of denaturation rate constant KD) (myosin) | effect of inhibiting freeze denaturation (Ca-ATPase activity), ranking (myofibrillar proteins [1]) | decline of rate of denaturation of myofibrillar proteins (logarithmic value of denaturation rate constant KD) (myofibrillar proteins [2]) | inhibition of heat denaturation of myofibrillar proteins, times sorbitol (myofibrillar proteins [3]) | dissolution of myofibrillar proteins at 0.6M, in words (myofibrillar proteins [4]) | effect of stabilizing myofibrillar proteins, times sodium gluconate (myofibrillar proteins [2]; relative to sodium gluconate, worked out from own data and Non-Patent Document 1)
1 | CC(=O)[O-].[Na+] [sodium acetate] | 1.1 | smallest effect of inhibiting freeze denaturation | 0.3 |  |  | 
2 | O=C([O-])[C@H](O)[C@@H](O)[C@H](O)[C@H](O)CO.[Na+] [sodium gluconate] |  |  |  | about 1.5 times |  | 
3 | OC[C@@H](O)[C@@H](O)[C@H](O)[C@@H](O)CO [sorbitol] | 0.7 | smallest effect of inhibiting freeze denaturation, followed by sorbitol | 0.6 |  | not dissolved at all | 
4 | N[C@@H](CCC(=O)[O-])C(=O)[O-].[Na+].[Na+] [sodium glutamate] | 1.7 | strongest effect of inhibiting freeze denaturation | 0.9 |  |  | 
5 | O=C([O-])CC(O)(CC(=O)[O-])C(=O)[O-].[Na+].[Na+].[Na+] [sodium citrate] | 1.7 | strongest effect of inhibiting freeze denaturation | 0.9 |  |  | at least 1.3 times
